Source: the SangsterLogP compilation

Row | SMILES | logP
1 | O=C(NCC1CCCCN1)c1cc(OCC(F)(F)F)ccc1OCC(F)(F)F (stereo not drawn) | 3.78
2 | CNC(=O)Nc1c(OCCN2CCCC2)c(OC)c2occc2c1OC | 1.38
3 | CN1CCCCC1CCN1c2ccccc2Sc2ccc(S(C)(=O)=O)cc21 (stereo not drawn) | 4.45
4 | C=CCN1CCCC1CNC(=O)c1cc(S(N)(=O)=O)cc(OC)c1OC (stereo not drawn) | 1.47
5 | CCN(CC)CCCN(c1ccccc1)C1Cc2ccccc2C1 | 4.86
6 | CC(C)NCC(O)COc1cccc2c1N(C(=O)c1cccnc1)CCC2 (stereo not drawn) | 1.63
7 | CCN(CC)CCNC(=O)c1ccc(N)cc1 | 0.82
8 | CN(C)CCCN1c2ccccc2Sc2ccccc21 | 4.64
9 | C=CCN1CCCC1CNC(=O)c1cc(S(=O)(=O)NC)c(N)cc1OC (stereo not drawn) | 1.69
10 | CN1CCN(CCCN2c3ccccc3Sc3ccccc32)CC1 | 4
11 | CC(C)(C)c1cc(C(O)CCC2CCNCC2)c2ccccc2n1 (stereo not drawn) | 3.63
12 | CC(C)NCCCC1(C(N)=O)c2ccccc2-c2ccccc21 | 3.11
13 | COc1ccc2c(c1)-c1c(ccc(OC)c1O)CC(CCc1ccccc1)N(C)CC2 (stereo not drawn) | 4.85
